Read-outs that look alike come from different tables or passages of the source.
System: Enterobacter cloacae (ECL) isolates
Assay: MIC of compounds alone and combined with antibacterials, broth microdilution (CLSI)
Assay type: cell-based
Details: for MIC: Enterobacter cloacae
In short: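 Inoculum 5·10^5 CFU/mL (final), log phase, ca-MHB; 16-20 h, 35° C, ambient air. MIC = lowest conc. with no visible growth; ATB MIC read at each compound level.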

For `C=CC1=C(C(=O)O)N2C(=O)[C@@H](NC(=O)/C(=N\OCC(=O)O)c3csc(N)n3)[C@H]2SC1` [FIX, Cefixime], which “MIC ATB in combination” value (ECL 200322, AF1 @ 8 μg/mL) is on record?
The value was 0.25 µg/mL.

What about the “MIC ATB in combination” value (ECL 260033, AF1 @ 4 μg/mL) of the same molecule?
Its value is over 128 µg/mL.

What about the “MIC ATB in combination” value (ECL 260033, AF1 @ 8 μg/mL) of the same molecule?
The value was 2 µg/mL.

And the “MIC ATB in combination” value (ECL 260253, AF1 @ 4 μg/mL)?
The value was 8 µg/mL.

What about the “MIC ATB in combination” value (ECL 260253, AF1 @ 8 μg/mL) of the same molecule?
The value was 8 µg/mL.

And the “MIC ATB in combination” value (ECL 260323, AF1 @ 4 μg/mL)?
The value was 64 µg/mL.

And the “MIC ATB in combination” value (ECL 260323, AF1 @ 8 μg/mL)?
Its value is 32 µg/mL.

What about the “MIC ATB in combination” value (ECL 260508, AF1 @ 4 μg/mL) of the same molecule?
Its value is “<=0.25 μg/mL”.

What about the “MIC ATB in combination” value (ECL 260508, AF1 @ 8 μg/mL) of the same molecule?
Its value is “<=0.25 μg/mL”.

And the “MIC ATB in combination” value (ECL NEM146383, AF1 @ 4 μg/mL)?
The value was 32 µg/mL.

And the “MIC ATB in combination” value (ECL NEM146383, AF1 @ 8 μg/mL)?
The value was 16 µg/mL.

And the “MIC ATB in combination” value (ECL P99, AF1 @ 4 μg/mL)?
The value was 16 µg/mL.

What about the “MIC ATB in combination” value (ECL P99, AF1 @ 8 μg/mL) of the same molecule?
The value was 1 µg/mL.

What about the “MIC ATB in combination” value (ECL UFR12, AF1 @ 4 μg/mL) of the same molecule?
The value was “<=0.25 μg/mL”.

What about the “MIC ATB in combination” value (ECL UFR12, AF1 @ 8 μg/mL) of the same molecule?
The value was “<=0.25 μg/mL”.

And the “MIC ATB in combination” value (ECL UFR13, AF1 @ 4 μg/mL)?
The value was 8 µg/mL.

And the “MIC ATB in combination” value (ECL UFR13, AF1 @ 8 μg/mL)?
The value was 8 µg/mL.

What about the “MIC ATB in combination” value (ECL UFR14, AF1 @ 4 μg/mL) of the same molecule?
Its value is 16 µg/mL.

What about the “MIC ATB in combination” value (ECL UFR14, AF1 @ 8 μg/mL) of the same molecule?
Its value is 8 µg/mL.

What about the “MIC ATB in combination” value (ECL UFR60, AF1 @ 4 μg/mL) of the same molecule?
Its value is 4 µg/mL.

And the “MIC ATB in combination” value (ECL UFR60, AF1 @ 8 μg/mL)?
The value was 4 µg/mL.

What about the “MIC ATB in combination” value (ECL UFR70, AF1 @ 4 μg/mL) of the same molecule?
Its value is 16 µg/mL.

What about the “MIC ATB in combination” value (ECL UFR70, AF1 @ 8 μg/mL) of the same molecule?
The value was 2 µg/mL.

And the “MIC ATB in combination” value (ECL UFR84, AF1 @ 4 μg/mL)?
Its value is 64 µg/mL.

And the “MIC ATB in combination” value (ECL UFR84, AF1 @ 8 μg/mL)?
Its value is 16 µg/mL.

And the “MIC ATB in combination” value (ECL UFR85, AF1 @ 4 μg/mL)?
The value was 8 µg/mL.

And the “MIC ATB in combination” value (ECL UFR85, AF1 @ 8 μg/mL)?
Its value is 0.5 µg/mL.

And the “MIC ATB in combination” value (ECL UFR194, AF1 @ 4 μg/mL)?
The value was 1 µg/mL.

What about the “MIC ATB in combination” value (ECL UFR194, AF1 @ 8 μg/mL) of the same molecule?
The value was 2 µg/mL.

What about the “MIC ATB in combination” value (ECL UFR200, AF1 @ 4 μg/mL) of the same molecule?
Its value is 1 µg/mL.

What about the “MIC ATB in combination” value (ECL UFR200, AF1 @ 8 μg/mL) of the same molecule?
Its value is 0.5 µg/mL.

And the MIC (ATB alone, strain ECL UFR197 (TEM-1, CTX-M-15, OXA-1, OXA-48))?
The MIC was over 128 µg/mL.

And the MIC (ATB alone, strain ECL UFR198 (TEM-1, SHV-12, CTX-M-15, DHA-1, OXA-1, OXA-48))?
Its MIC is over 128 µg/mL.

And the MIC (ATB combined with CLA @ 4 μg/ml, strain ECL UFR197 (TEM-1, CTX-M-15, OXA-1, OXA-48), read-out: MIC)?
Its MIC is 128 µg/mL.

And the MIC (ATB combined with CLA @ 4 μg/ml, strain ECL UFR198 (TEM-1, SHV-12, CTX-M-15, DHA-1, OXA-1, OXA-48))?
Its MIC is over 128 µg/mL.

And the MIC (strain ECL 2185D (OXA-163), ATB alone)?
The MIC was over 128 µg/mL.

And the MIC (strain ECL 2185D (OXA-163), CLA @ 4 μg/ml+ ATB)?
The MIC was over 128 µg/mL.

What about the MIC (strain ECL 190310 (AmpC), ATB alone) of the same molecule?
The MIC was over 128 µg/mL.

What about the MIC (strain ECL 190310 (AmpC), CLA @ 4 μg/ml+ ATB) of the same molecule?
The MIC was over 128 µg/mL.

What about the MIC (strain ECL 190408 (TEM-1, CTX-M-15, OXA-1), ATB alone) of the same molecule?
The MIC was 512 µg/mL.

What about the MIC (strain ECL 190408 (TEM-1, CTX-M-15, OXA-1), CLA @ 4 μg/ml+ ATB, read-out: MIC) of the same molecule?
The MIC was 128 µg/mL.

What about the MIC (strain ECL 200138 (AmpC), ATB alone) of the same molecule?
The MIC was over 128 µg/mL.

And the MIC (strain ECL 200138 (AmpC), CLA @ 4 μg/ml+ ATB)?
The MIC was over 128 µg/mL.

What about the MIC (strain ECL 200322 (TEM-1, CTX-M-15, OXA-1), ATB alone) of the same molecule?
Its MIC is over 128 µg/mL.

What about the MIC (strain ECL 260033 (AmpC), ATB alone) of the same molecule?
Its MIC is over 128 µg/mL.

What about the MIC (strain ECL 260033 (AmpC), CLA @ 4 μg/ml+ ATB) of the same molecule?
The MIC was over 128 µg/mL.

What about the MIC (strain ECL 260253 (TEM-1, KPC-3), ATB alone) of the same molecule?
The MIC was over 128 µg/mL.

What about the MIC (strain ECL 260253 (TEM-1, KPC-3), CLA @ 4 μg/ml+ ATB, read-out: MIC) of the same molecule?
The MIC was 64 µg/mL.

And the MIC (strain ECL 260323 (AmpC), ATB alone)?
The MIC was over 128 µg/mL.

What about the MIC (strain ECL 260323 (AmpC), CLA @ 4 μg/ml+ ATB) of the same molecule?
Its MIC is over 128 µg/mL.

And the MIC (strain ECL 260508 (TEM-1, CTX-M-15), ATB alone)?
Its MIC is over 128 µg/mL.

What about the MIC (strain ECL 260508 (TEM-1, CTX-M-15), CLA @ 4 μg/ml+ ATB) of the same molecule?
Its MIC is 32 µg/mL.

And the MIC (strain ECL NEM146383 (AmpC), ATB alone)?
The MIC was over 128 µg/mL.

And the MIC (strain ECL NEM146383 (AmpC), CLA @ 4 μg/ml+ ATB)?
The MIC was over 128 µg/mL.

And the MIC (strain ECL P99 (AmpC), ATB alone)?
The MIC was over 128 µg/mL.

And the MIC (strain ECL P99 (AmpC), CLA @ 4 μg/ml+ ATB)?
The MIC was over 128 µg/mL.

What about the MIC (strain ECL UFR12 (CTX-M-9, OXA-48), ATB alone) of the same molecule?
Its MIC is 16 µg/mL.

And the MIC (strain ECL UFR12 (CTX-M-9, OXA-48), CLA @ 4 μg/ml+ ATB)?
The MIC was 8 µg/mL.

And the MIC (strain ECL UFR13 (TEM-1, SHV-12, CTX-M-9, OXA-48), ATB alone)?
The MIC was over 128 µg/mL.

And the MIC (strain ECL UFR13 (TEM-1, SHV-12, CTX-M-9, OXA-48), CLA @ 4 μg/ml+ ATB, read-out: MIC)?
The MIC was 128 µg/mL.

And the MIC (strain ECL UFR14 (TEM-1, SHV-12, CTX-M-15, DHA-1, OXA-1, OXA-48), ATB alone)?
Its MIC is over 128 µg/mL.

What about the MIC (strain ECL UFR14 (TEM-1, SHV-12, CTX-M-15, DHA-1, OXA-1, OXA-48), CLA @ 4 μg/ml+ ATB) of the same molecule?
Its MIC is over 128 µg/mL.

What about the MIC (strain ECL UFR60 (TEM-1, CTX-M-15, KPC-2), ATB alone) of the same molecule?
The MIC was over 128 µg/mL.

And the MIC (strain ECL UFR60 (TEM-1, CTX-M-15, KPC-2), CLA @ 4 μg/ml+ ATB, read-out: MIC)?
Its MIC is 128 µg/mL.

And the MIC (strain ECL UFR70 (TEM-1, CTX-M-15, CMY-2, OXA-1, Porin loss), ATB alone)?
Its MIC is over 128 µg/mL.

And the MIC (strain ECL UFR70 (TEM-1, CTX-M-15, CMY-2, OXA-1, Porin loss), CLA @ 4 μg/ml+ ATB)?
The MIC was over 128 µg/mL.

What about the MIC (strain ECL UFR84 (TEM-1, AmpC, OXA-1), ATB alone) of the same molecule?
The MIC was over 128 µg/mL.

And the MIC (strain ECL UFR84 (TEM-1, AmpC, OXA-1), CLA @ 4 μg/ml+ ATB)?
The MIC was over 128 µg/mL.

What about the MIC (strain ECL UFR85 (TEM-1, CTX-M-15, AmpC), ATB alone) of the same molecule?
The MIC was over 128 µg/mL.

What about the MIC (strain ECL UFR85 (TEM-1, CTX-M-15, AmpC), CLA @ 4 μg/ml+ ATB) of the same molecule?
Its MIC is over 128 µg/mL.

What about the MIC (strain ECL UFR194 (OXA-48), ATB alone) of the same molecule?
Its MIC is 4 µg/mL.

And the MIC (strain ECL UFR194 (OXA-48), CLA @ 4 μg/ml+ ATB)?
The MIC was 8 µg/mL.

What about the MIC (strain ECL UFR195 (TEM-1, CTX-M-15, OXA-1, OXA-48), ATB alone) of the same molecule?
Its MIC is over 128 µg/mL.

And the MIC (strain ECL UFR195 (TEM-1, CTX-M-15, OXA-1, OXA-48), CLA @ 4 μg/ml+ ATB)?
The MIC was over 128 µg/mL.

What about the MIC (strain ECL UFR196 (TEM-1, CTX-M-15, OXA-1, OXA-48), ATB alone) of the same molecule?
The MIC was over 128 µg/mL.

What about the MIC (strain ECL UFR196 (TEM-1, CTX-M-15, OXA-1, OXA-48), CLA @ 4 μg/ml+ ATB) of the same molecule?
The MIC was over 128 µg/mL.

What about the MIC (strain ECL UFR200 (TEM-1, SHV-12, KPC-2), ATB alone) of the same molecule?
Its MIC is over 128 µg/mL.

What about the MIC (strain ECL UFR200 (TEM-1, SHV-12, KPC-2), CLA @ 4 μg/ml+ ATB) of the same molecule?
Its MIC is 16 µg/mL.

And the “MIC ATB in combination” value (strain ECL UFR195, antibacterial combined with AF1 @ 4 μg/mL)?
Its value is 4 µg/mL.

What about the “MIC ATB in combination” value (strain ECL UFR195, antibacterial combined with AF1 @ 8 μg/mL) of the same molecule?
Its value is “<=0.25 μg/mL”.

What about the “MIC ATB in combination” value (strain ECL UFR196, antibacterial combined with AF1 @ 4 μg/mL) of the same molecule?
The value was 16 µg/mL.

And the “MIC ATB in combination” value (strain ECL UFR196, antibacterial combined with AF1 @ 8 μg/mL)?
The value was 4 µg/mL.

What about the “MIC ATB in combination” value (strain ECL UFR197, antibacterial combined with AF1 @ 4 μg/mL) of the same molecule?
The value was 16 µg/mL.

What about the “MIC ATB in combination” value (strain ECL UFR197, antibacterial combined with AF1 @ 8 μg/mL) of the same molecule?
The value was 1 µg/mL.

What about the “MIC ATB in combination” value (strain ECL UFR198, antibacterial combined with AF1 @ 4 μg/mL) of the same molecule?
The value was 64 µg/mL.

And the “MIC ATB in combination” value (strain ECL UFR198, antibacterial combined with AF1 @ 8 μg/mL)?
Its value is 64 µg/mL.
